Where two headings read alike, the source gives them in different places.
What was measured:
WSU-DLCL2 cells = assay: Medium throughput combination proliferation assay (CellTiter-Glo, Chou-Talalay CI / potency shift)
SU-DHL-10 cells = assay: as above
SU-DHL-5 cells = assay: as above
[1] = system: Sestrin 1 (SESN1), TNF and GILZ expression; details: all cell lines; 4 days
Description: Gene expression was normalized to array's B2M and fold change compared to DMSO was calculated using the ΔΔCt method.

H3K27 acetylation levels = details: WSU-DLCL2, OCI-LY19, RL cells; 4 days
Description: Acid extracted histones were analyzed by western blot for H3K27 acetylation levels.

OCI-LY19 cells = assay: Medium throughput combination proliferation assay (CellTiter-Glo, Chou-Talalay CI / potency shift)
H3K27Me3 levels = details: single agent, four day treatment
SU-DHL6 cells = assay: Medium throughput combination proliferation assay (CellTiter-Glo, Chou-Talalay CI / potency shift); format: cell-based; details: SU-DHL6 (EZH2 Mutant GCB); drug combined with Compound 44
DOHH2 cells = assay: as above
Toledo cells = assay: as above

With `C[C@]12C=CC(=O)C=C1CC[C@@H]1[C@@H]2[C@@H](O)C[C@@]2(C)[C@H]1CC[C@]2(O)C(=O)CO` [Prednisolone] the “Summary of Combinations with Compound 44” value (WSU-DLCL2 cells; WSU-DLCL2 (EZH2 Mutant GCB), drug combined with Compound 44) was “Synergy”, the “growth inhibition by the drug by itself” value (WSU-DLCL2 cells; WSU-DLCL2 (EZH2 mutant), single agent) was “no sensitivity” and the 1/α (WSU-DLCL2 cells; WSU-DLCL2, combination with Compound 44) was 9.7. For the same molecule, the “Summary of Combinations with Compound 44” value (SU-DHL-10 cells; SU-DHL10 (EZH2 Mutant GCB), drug combined with Compound 44) was “Synergy”, the “growth inhibition by the drug by itself” value (SU-DHL-10 cells; SU-DHL10 (EZH2 mutant), single agent) was “no sensitivity” and the 1/α (SU-DHL-10 cells; SU-DHL-10, combination with Compound 44) was 4.2. For the same molecule, the IC50 (SU-DHL-10 cells; read-out: Potency (IC50), SU-DHL-10 (GCB sub-type EZH2 Y646F), single agent, after 3 days of dosing) was > 1000 nM, the IC50 (SU-DHL-5 cells; Homo sapiens, SU-DHL-5, 72 h, read-out: Potency (IC50)) was 39 nM and the “Summary of Combinations with Compound 44” value (SU-DHL-5 cells; SU-DHL5 (EZH2 WT GCB), drug combined with Compound 44) was “Synergy”. For the same molecule, the 1/α (SU-DHL-5 cells; SU-DHL-5, combination with Compound 44) was 7.6, the TSC22D3/GILZ expression [1] was “up-regulated” and the “global H3K27 acetylation levels” value (H3K27 acetylation levels) was “not affected”. For the same molecule, the IC50 (OCI-LY19 cells; Homo sapiens, OCI-LY19, 72 h, read-out: Potency (IC50)) was 47 nM, the 1/α (OCI-LY19 cells; OCI-LY19, combination with Compound 44) was 4.2 and the “Summary of Combinations with Compound 44” value (OCI-LY19 cells; OCI-LY-19 (EZH2 WT GCB), drug combined with Compound 44) was “Synergy”. For the same molecule, the H3K27Me3 levels (H3K27Me3 levels; OCI-LY19 cells) was “increase H3K27Me3 levels at higher doses”, the H3K27Me3 levels (H3K27Me3 levels; RL cells) was “no effect” and the H3K27Me3 levels (H3K27Me3 levels; WSU-DLCL2 cells) was “no effect”. The “Summary of Combinations with Compound 44” value (SU-DHL6 cells) was “Synergy”, the “Summary of Combinations with Compound 44” value (DOHH2 cells; DOHH2 (EZH2 WT GCB), drug combined with Compound 44) was “Synergy” and the 1/α (DOHH2 cells; DOHH2, combination with Compound 44, data normalized to individual 6438 concentrations instead of DMSO) was 9.5. The “potency of the glucocorticoid agonist with addition of Compound 44” value (DOHH2 cells; DOHH2 EZH2 wild-type cells) was “increased”, the IC50 (DOHH2 cells; read-out: Potency (IC50), DOHH-2 (GCB sub-type WT EZH2), single agent, after 3 days of dosing) was 133 nM and the “Summary of Combinations with Compound 44” value (Toledo cells; Toledo (EZH2 WT GCB), drug combined with Compound 44) was “No effect”. For the same molecule, the 1/α (Toledo cells; Toledo, combination with Compound 44) was “No effect” and the IC50 (Toledo cells; read-out: Potency (IC50), Toledo, single agent, dosed for 5 days) was > 1000 nM.
